Measurements reported in US7579331B2, “Method of improved diuresis in individuals with impaired renal function” (Novacardia, Inc., priority 2004, dated 2009).
Like-named read-outs stand apart in the source and are kept apart here.

Columns and labels:
[1] = reported by Ticho et al 2003; cited from earlier work
adenosine A1 receptors [2] = molecular target: T1, adenosine A1 receptors (Homo sapiens, UniProt P30542); conditions: read-out: A1KI, cited from earlier work
T1 sequence (P30542 1-326): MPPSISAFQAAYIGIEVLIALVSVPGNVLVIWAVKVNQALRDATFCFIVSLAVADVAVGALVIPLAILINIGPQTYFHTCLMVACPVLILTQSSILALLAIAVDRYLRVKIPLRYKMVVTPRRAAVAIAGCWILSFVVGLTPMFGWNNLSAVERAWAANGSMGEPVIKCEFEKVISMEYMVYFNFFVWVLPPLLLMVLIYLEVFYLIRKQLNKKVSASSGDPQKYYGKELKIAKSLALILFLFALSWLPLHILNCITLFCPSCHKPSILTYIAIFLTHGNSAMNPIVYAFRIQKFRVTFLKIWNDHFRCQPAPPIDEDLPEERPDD

urine volume = conditions: equi-potent dose .3 mg/kg or 20 mg, Wolff et al 1998; cited from earlier work
adenosine A1 receptors [3] = molecular target: T1, adenosine A1 receptors; conditions: BG 9719 relative to KW-3902

CCCn1c(=O)c2nc([C@H]3C[C@H]4C[C@@H]3[C@@H]3O[C@H]43)[nH]c2n(CCC)c1=O [BG 9719]
solubility [1]: poor
stability [1]: poor
Ki (adenosine A1 receptors [2]; adenosine A1 receptor): 0.45 ± 0.04 nM
Ki (adenosine A1 receptors [2]; repeated in the equi-potent dose table): 0.45 ± 0.04 nM
% Urine volume increase over placebo, 3 hr (urine volume): 33%
greater affinity for the A1 receptor than KW-3902 (adenosine A1 receptors [3]): 60%
